From paper PMC9542285, “Novel amides of mycophenolic acid and some heterocyclic derivatives as immunosuppressive agents” (Journal of Enzyme Inhibition and Medicinal Chemistry, 2022)

How the values were obtained:
[1] = tested on: T-Jurkat cells; assay: Dye-based proliferation assay VPD450 (flow cytometry), T-Jurkat; format: cell-based, human; details: Homo sapiens, 48 h
Procedure: (§1) Figure 4. […] Cell proliferation was analysed using flow cytometry.

[2] = tested on: T-Jurkat cell line; assay: In vitro cytotoxicity assay with XTT dye, T-Jurkat; format: cell-based, human; details: Homo sapiens, 48 h incubation then 24 h XTT, read-out: IC50 T-Jurkat (XTT test)
Procedure: (§2) Figure 2. Representative dose-response curve to determine the IC50 of MPA and A2. […] Next, plates were incubated for 24 h with XTT reagent. The conversion of water-soluble yellow tetrazolium XTT salt into orange formazan was monitored by measuring the optical density at 450 nm on microplate spectrophotometer. For XTT assay at least three experiments were performed and values are presented as mean ± SD.
(§3) The cytotoxic effect of derivatives of MPA was measured using in vitro 2,3-bis(2-methoxy-4-nitro-5-sulfophenyl)-2H-tetrazolium-5-carboxanilide (XTT)-based assay (Roche, Basel, Swiss). PBMCs suspended in complete X–VIVO20 medium and T-Jurkat cells suspended in complete RPMI-1640 medium were added on a 96-well plate at a concentration of 5 × 10^5 cells/50 µL/well. […] As a background control we used medium without cells, as a positive control we used cells untreated with compounds. After 48 h for T-Jurkat cells and 72 h for PBMCs of incubation in a humidified atmosphere with 5% CO2 at 37 °C, 50 µL of XTT reagent (freshly prepared according to the manufacturer’s procedure) was added to all samples. Plates were incubated for 24 h (5% CO2 at 37 °C). The conversion of water-soluble yellow tetrazolium XTT salt into orange formazan was monitored by measuring the optical density (OD) at 450 nm on Agilent BioTek Epoch Microplate Spectrophotometer (Agilent Technologies, Santa Clara, CA), with a background wavelength at 690 nm. […] Each sample was performed in triplicates.

[3] = tested on: PBMCs; assay: cells; details: Homo sapiens, PBMC, 72 h, read-out: EC50 PBMCs (VPD450 proliferation), PBMCs stimulated with anti-CD3/anti-CD28 beads, 72 h
Procedure: (§4) Cell proliferation was analysed using flow cytometry. The results are expressed as the mean ± SD.
(§5) PBMCs and T-Jurkat cells were washed twice with warm PBS (37 °C), suspended in fresh PBS at a final concentration of 10–30 × 10^6 cells/mL and labelled with 1 µL of VPD450 (BD Biosciences, Franklin Lakes, NJ) at 37 °C for 15 min. Each 5 min cells were vortexed to provide uniform staining[42]^,[43]. Subsequently, cells were washed with PBS and then with complete medium (X-VIVO20 for PBMCs and RPMI-1640 for T-Jurkat cells). After this step, cells were suspended in fresh complete medium, seeded on 96-well plates (1 × 10^6 cells/well). PBMCs were additionally stimulated with magnetic beads coated with anti-CD3 and anti-CD28 antibodies (Invitrogen, Carlsbad, CA) in 1:0.5 cell:bead ratio. Of 100 µL of examined derivatives of MPA were added to experimental wells to receive final concentrations: 100; 10; 1; 0.1; 0.01 µM. In parallel, stained and not stimulated cells, as well as stained and stimulated cells, were seeded in the same concentration as controls. After 48 h for T-Jurkat and 72 h for PBMCs, cells were analysed with flow cytometer LSRFortessa (BD Biosciences, Franklin Lakes, NJ) and Kaluza C Flow Cytometry Analysis Software (Beckman Coulter, Brea, CA). […] Cell viability was determined at the highest concentration of the tested compound. For this purpose, TC20 cell counter (Biorad) was used with trypan blue exclusion.

[4] = tested on: PBMCs; assay: In vitro cytotoxicity assay with XTT dye, PBMCs; format: cell-based, human; details: Homo sapiens, PBMC, 72 h incubation then 24 h XTT, read-out: IC50 PBMCs (XTT test)
Procedure: as §2, §3

[5] = Precipitation / solubility of compounds in culture; format: physicochemical; parameters: key to Precipitating compound flag (XTT test, PBMCs) / Precipitating compound flag (VPD450 assay, PBMCs): (↓) – precipitating compound; details: for Precipitating compound flag (VPD450 assay, PBMCs) / Precipitating compound flag (XTT test, PBMCs): PBMC culture, DMSO with Tween20; for Solubility in PBMC culture: XTT assay conditions
Procedure: Drug toxicity that affects the cells can cause a variety of serious side effects, including uncontrolled suppression of the immune system. In order to check the cytotoxicity of the tested compounds, the XTT test was performed, the results of which are presented in Table 2. All tested compounds were characterised by lower cytotoxicity than native MPA. Unfortunately, several compounds (marked with ↓) were partially insoluble in culture despite surfactant addition. They were investigated too, but one could not use them as an immunosuppressive drug in their current form. Taking into account the EC50 values obtained in the proliferation tests ([…] staining, Table 3), the compound A2 was selected as the one with the highest immunosuppressive potential and the possibility of its later use in therapy, and is presented in the graphs (Figures 2–4).
To prepare appropriate concentrations of tested compounds, the substances were dissolved in DMSO (Sigma Aldrich, Poland) with 1% addition of Tween20 to obtain final concentration of 0.01 M. The solution was diluted 10-fold and then 5-fold in appropriate medium without additives (RPMI-1640 for T-Jurkat cell line; X-VIVO20 for PBMCs) to obtain the following concentrations: 200; 20; 2; 0.2; 0.02 µM.

[6] = Dye-based proliferation assay VPD450 (flow cytometry), T-Jurkat; format: cell-based, human; details: human, VPD450-labelled T-Jurkat cells, […], trypan blue exclusion
Procedure: as §1

[7] = In vitro cytotoxicity assay with XTT dye, T-Jurkat; format: cell-based, human; details: human, T-Jurkat cell line, […], trypan blue exclusion
Procedure: as §2, §3

[8] = In vitro cytotoxicity assay with XTT dye, PBMCs; format: cell-based, human; details: human, […], trypan blue exclusion
Procedure: as §2, §3

[9] = tested on: PBMCs; assay: VPD450 proliferation of PBMCs with or without GMP (IMPDH mechanism test); format: cell-based, human; details: for Mechanism of action (IMPDH inhibition, GMP reversal): PBMCs, with or without 50 µM GMP, 72 h
Procedure: According to reported experiment, suppression of cell proliferation caused by IMPDH inhibitors in the presence of guanosine source, e.g. gunosine monophosphate (GMP) is reversible.
Figure 5. […] Cell proliferation was analysed using flow cytometry.
Cells proliferation was analyzed using flow cytometry.
(1 picture or pasted object on this page, not shown here)

[10] = in vitro; details: human
Procedure: as §4, §5

SMILES: COc1c(C)c2c(c(O)c1C/C=C(\C)CCC(=O)Nc1ccc3ocnc3c1)C(=O)OC2 [A6, N-(benzo[d]oxazol-5-yl) mycophenolate]
- EC50 [1]: 13.84 ± 0.069 µM
- IC50 [2]: 31.407 ± 0.002 µM
- EC50 [3]: 58.27 ± 0.021 µM
- IC50 [4]: 55.487 ± 0.028 µM
- melting point: 84 to 87 °C

SMILES: COc1c(C)c2c(c(O)c1C/C=C(\C)CCC(=O)Nc1nc3c(OC)cccc3s1)C(=O)OC2 [A16, N-(4-methoxybenzo[d]thiazol-2-yl) mycophenolate]
- Precipitating compound flag (VPD450 assay, PBMCs) [5]: (↓)
- Precipitating compound flag (XTT test, PBMCs) [5]: (↓)
- Solubility in PBMC culture [5]: limited solubility
- viability at 48 h, 100 µM [6]: 73%
- viability at 48 h, 100 µM [7]: 69%
- EC50 [3]: 46.29 ± 0.011 µM
- IC50 [4]: 54.578 ± 0.027 µM
- melting point: 165 to 168 °C

SMILES: COc1c(C)c2c(c(O)c1C/C=C(\C)CCC(=O)Nc1nc3ccc(C)cc3s1)C(=O)OC2 [A9, N-(6-methylbenzo[d]thiazol-2-yl) mycophenolate]
- Precipitating compound flag (VPD450 assay, PBMCs) [5]: (↓)
- Precipitating compound flag (XTT test, PBMCs) [5]: (↓)
- Solubility in PBMC culture [5]: limited solubility
- EC50 [1]: 22.72 ± 0.113 µM
- IC50 [2]: 85.7 ± 0.004 µM
- EC50 [3]: 136.2 ± 0.011 µM
- IC50 [4]: 94.6 ± 0.047 µM
- melting point: 257 to 260 °C (dec.)

SMILES: COc1c(C)c2c(c(O)c1C/C=C(\C)CCC(=O)Nc1nc3ccc(F)cc3s1)C(=O)OC2 [A11, N-(6-fluorobenzo[d]thiazol-2-yl) mycophenolate]
- Precipitating compound flag (VPD450 assay, PBMCs) [5]: (↓)
- Precipitating compound flag (XTT test, PBMCs) [5]: (↓)
- Solubility in PBMC culture [5]: limited solubility
- EC50 [1]: 63.21 ± 0.316 µM
- viability at 48 h, 100 µM [7]: 56%
- EC50 [3]: 83.07 ± 0.012 µM
- IC50 [4]: 139.86 ± 0.07 µM
- melting point: 232 to 236 °C (dec.)

SMILES: COc1c(C)c2c(c(O)c1C/C=C(\C)CCC(=O)Nc1nc3ccc(C(F)(F)F)cc3s1)C(=O)OC2 [A14, N-[6-(trifluoromethyl)benzo[d]thiazol-2-yl] mycophenolate]
- EC50 [1]: 12.58 ± 0.063 µM
- IC50 [2]: 34.749 ± 0.003 µM
- EC50 [3]: 30.71 ± 0.008 µM
- IC50 [4]: 81.482 ± 0.041 µM
- melting point: 261 to 264 °C (dec.)

SMILES: COc1c(C)c2c(c(O)c1C/C=C(\C)CCC(=O)Nc1nc3ccc(Br)cc3s1)C(=O)OC2 [A13, N-(6-bromobenzo[d]thiazol-2-yl) mycophenolate]
- EC50 [1]: 12.64 ± 0.063 µM
- IC50 [2]: 58.069 ± 0.002 µM
- EC50 [3]: 39.47 ± 0.013 µM
- IC50 [4]: 63.173 ± 0.032 µM
- melting point: 265 to 267 °C (dec.)

SMILES: COc1c(C)c2c(c(O)c1C/C=C(\C)CCC(=O)Nc1nc3ccccc3[nH]1)C(=O)OC2 [A3, N-(1H-benzo[d]imidazol-2-yl) mycophenolate]
- viability at 48 h, 100 µM [6]: 55%
- viability at 48 h, 100 µM [7]: 74%
- EC50 [3]: 120 µM
- IC50 [4]: 94.538 ± 0.047 µM
- melting point: 253 to 255 °C (dec.)

SMILES: COc1ccc2nc(NC(=O)CC/C(C)=C/Cc3c(O)c4c(c(C)c3OC)COC4=O)sc2c1 [A8, N-(6-methoxybenzo[d]thiazol-2-yl) mycophenolate]
- Precipitating compound flag (VPD450 assay, PBMCs) [5]: (↓)
- Precipitating compound flag (XTT test, PBMCs) [5]: (↓)
- Solubility in PBMC culture [5]: limited solubility
- EC50 [1]: 22.04 ± 0.11 µM
- IC50 [2]: 51.124 ± 0.008 µM
- EC50 [3]: 133.5 ± 0.007 µM
- IC50 [4]: 93.196 ± 0.047 µM

SMILES: COc1c(C)c2c(c(O)c1C/C=C(\C)CCC(=O)Nc1nc3ccc([N+](=O)[O-])cc3s1)C(=O)OC2 [A15, N-(6-nitrobenzo[d]thiazol-2-yl) mycophenolate]
- Precipitating compound flag (VPD450 assay, PBMCs) [5]: (↓)
- Precipitating compound flag (XTT test, PBMCs) [5]: (↓)
- Solubility in PBMC culture [5]: limited solubility
- EC50 [1]: 13.37 ± 0.067 µM
- IC50 [2]: 12.717 ± 0.005 µM
- EC50 [3]: 44.59 ± 0.013 µM
- IC50 [4]: 137.63 ± 0.069 µM
- melting point: 278 to 280 °C (dec.)

SMILES: COc1c(C)c2c(c(O)c1C/C=C(\C)CCC(=O)Nc1nc3c(C)cccc3s1)C(=O)OC2 [A17, N-(4-methylbenzo[d]thiazol-2-yl) mycophenolate]
- Precipitating compound flag (VPD450 assay, PBMCs) [5]: (↓)
- Precipitating compound flag (XTT test, PBMCs) [5]: – (↓)
- Solubility in PBMC culture [5]: limited solubility
- viability at 48 h, 100 µM [6]: 69%
- viability at 48 h, 100 µM [7]: 82%
- EC50 [3]: 82.1 µM
- viability at 72 h, 100 µM [8]: 65%
- melting point: 173 to 176 °C

SMILES: COc1c(C)c2c(c(O)c1C/C=C(\C)CCC(=O)Nc1ccc3scnc3c1)C(=O)OC2 [A5, N-(benzo[d]thiazol-5-yl) mycophenolate]
- EC50 [1]: 36.05 ± 0.18 µM
- IC50 [2]: 75.04 ± 0.005 µM
- EC50 [3]: 76.98 ± 0.01 µM
- IC50 [4]: 45.73 ± 0.023 µM
- melting point: 114 to 117 °C

SMILES: COc1c(C)c2c(c(O)c1C/C=C(\C)CCC(=O)NCc1ncccn1)C(=O)OC2 [A7, N-[1-(pirymidin-2-yl)methyl] mycophenolate]
- Mechanism of action (IMPDH inhibition, GMP reversal) [9]: consistent with that of MPA
- EC50 [1]: 9.51 ± 0.047 µM
- IC50 [2]: 10.739 ± 0.003 µM
- EC50 [3]: 29.45 ± 0.025 µM
- IC50 [4]: 70.48 ± 0.035 µM
- melting point: 107 to 110 °C

SMILES: COc1c(C)c2c(c(O)c1C/C=C(\C)CCC(=O)Nc1nc3ccc(Cl)cc3s1)C(=O)OC2 [A12, N-(6-chlorobenzo[d]thiazol-2-yl) mycophenolate]
- Precipitating compound flag (VPD450 assay, PBMCs) [5]: (↓)
- Precipitating compound flag (XTT test, PBMCs) [5]: (↓)
- Solubility in PBMC culture [5]: limited solubility
- EC50 [1]: 12.16 ± 0.061 µM
- IC50 [2]: 12.833 ± 0.008 µM
- EC50 [3]: 38.37 ± 0.017 µM
- IC50 [4]: 62.975 ± 0.031 µM
- melting point: 261 to 264 °C (dec.)

SMILES: COc1c(C)c2c(c(O)c1C/C=C(\C)CCC(=O)Nc1ccc3ncsc3c1)C(=O)OC2 [A4, N-(benzo[d]thiazol-6-yl) mycophenolate]
- EC50 [1]: 14.73 ± 0.074 µM
- IC50 [2]: 37.789 ± 0.002 µM
- EC50 [3]: 62.26 ± 0.01 µM
- IC50 [4]: 24.639 ± 0.015 µM
- melting point: 175 to 177 °C

SMILES: COc1c(C)c2c(c(O)c1C/C=C(\C)CCC(=O)O)C(=O)OC2 [MPA, Mycophenolic acid]
- Effect of GMP addition on proliferation [9]: proliferation increases after the addition of GMP
- EC50 [1]: 0.49 ± 0.002 µM
- IC50 [2]: 0.509 ± 0.008 µM
- EC50 [3]: 0.723 ± 0.011 µM
- IC50 [4]: 10.52 ± 0.015 µM

SMILES: COc1c(C)c2c(c(O)c1C/C=C(\C)CCC(=O)Nc1nc3c(Cl)cccc3s1)C(=O)OC2 [A18, N-(4-chlorobenzo[d]thiazol-2-yl) mycophenolate]
- Mechanism of action (IMPDH inhibition, GMP reversal) [9]: consistent with that of MPA
- EC50 [1]: 11.28 ± 0.056 µM
- IC50 [2]: 10.261 ± 0.001 µM
- EC50 [3]: 14.7 ± 0.02 µM
- IC50 [4]: 74.426 ± 0.037 µM

SMILES: COc1c(C)c2c(c(O)c1C/C=C(\C)CCC(=O)Nc1nc3ccccc3s1)C(=O)OC2 [A1, N-(benzo[d]thiazol-2-yl) mycophenolate]
- viability at 48 h, 100 µM [7]: 68%
- IC50 [4]: 74.57 ± 0.04 µM
- viability at 72 h, 100 µM [10]: 82%

SMILES: COc1c(C)c2c(c(O)c1C/C=C(\C)CCC(=O)Nc1nc3cc(C)c(C)cc3s1)C(=O)OC2 [A10, N-(5,6-dimethylbenzo[d]thiazol-2-yl) mycophenolate]
- EC50 [1]: 26.69 ± 0.133 µM
- viability at 48 h, 100 µM [7]: 51%
- EC50 [3]: 85.24 ± 0.012 µM
- IC50 [4]: 129.41 ± 0.064 µM
- melting point: 246 to 247 °C (dec.)
